Read-outs that look alike come from different tables or passages of the source.
Columns and labels:
[1] = biological target: T1, RBD of SARS-CoV-2 spike protein binding to hACE2 receptor (Severe acute respiratory syndrome coronavirus 2, UniProt P0DTC2); assay: biochemical
T1 construct: purchased GenScript

[2] = biological target: T2, hACE2 receptor (Homo sapiens, UniProt Q9BYF1); assay type: binding; conditions: for Binging with ACE2 (% of control ± SD): Table 3
T2 construct: purchased GenScript

[3] = system: SARS-CoV-2 spike protein pseudo-typed virions; assay type: cell-based
[4] = system: SARS-CoV-2 spike protein pseudo-typed virions; assay type: cell-based; remark: listed apart in the source

T2 sequence (Q9BYF1 18-740): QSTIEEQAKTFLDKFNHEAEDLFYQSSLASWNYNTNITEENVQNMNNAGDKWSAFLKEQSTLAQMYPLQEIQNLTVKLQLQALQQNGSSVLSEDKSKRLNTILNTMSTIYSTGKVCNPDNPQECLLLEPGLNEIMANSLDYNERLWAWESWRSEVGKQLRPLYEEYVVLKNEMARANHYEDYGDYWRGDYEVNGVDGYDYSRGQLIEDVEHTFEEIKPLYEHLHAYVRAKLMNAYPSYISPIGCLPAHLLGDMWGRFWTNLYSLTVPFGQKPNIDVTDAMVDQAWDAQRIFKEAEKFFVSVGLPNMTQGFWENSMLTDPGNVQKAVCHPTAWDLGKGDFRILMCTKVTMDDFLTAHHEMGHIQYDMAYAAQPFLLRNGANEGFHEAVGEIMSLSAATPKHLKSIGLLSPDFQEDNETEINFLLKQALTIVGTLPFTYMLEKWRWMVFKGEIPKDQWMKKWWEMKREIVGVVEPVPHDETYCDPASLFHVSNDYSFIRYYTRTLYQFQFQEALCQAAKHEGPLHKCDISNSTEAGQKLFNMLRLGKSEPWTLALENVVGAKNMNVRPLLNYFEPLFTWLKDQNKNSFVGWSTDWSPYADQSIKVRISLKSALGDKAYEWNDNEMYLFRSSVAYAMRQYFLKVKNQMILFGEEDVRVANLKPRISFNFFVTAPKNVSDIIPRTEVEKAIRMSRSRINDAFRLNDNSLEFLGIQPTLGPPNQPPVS

Row | Molecule | Binging with ACE2 (% of control ± SD) ([2]; tested at 0.1 mg/ml) | further results
1 | Urolithin A | 8.8 ± 1.6 % of control | Binding with RBD (% of control ± SD) [1]: 31.1 ± 4.6 % of control
2 | O[C@H]1[C@H](O)[C@@H](O)CN2CC[C@H](O)[C@H]12 [Castanospermine] | 5.5 ± 3.1 % of control | 
3 | O=c1c(O)c(-c2ccc(O)c(O)c2)oc2cc(O)ccc12 [Fisetin] | 6.0 ± 2.4 % of control | 
4 | COc1ccc(Cc2nccc3cc(OC)c(OC)cc23)cc1OC [Papaverine, reference compound] | 6.5 ± 3.7 % of control | 
5 | O=c1c(O)cc([C@H]2Oc3cc(O)cc(O)c3C[C@H]2O)cc2c([C@H]3Oc4cc(O)cc(O)c4C[C@H]3O)cc(O)c(O)c12 [Theafalvin] |  | Binding to RBD (% of control ± DS) [1]: 27.3 ± 1.4 % of control; Binging to ACE2 (% of control ± DS) ([2]; Table 4, tested at 0.1 mg/ml): 7.9 ± 1.9 % of control
6 | Oc1cc(O)cc(O)c1 [Phloroglucinol] | 5.9 ± 3.4 % of control | 
7 | O=c1cc(-c2ccc(O)cc2)oc2cc(O)cc(O)c12 [Apigenin] | 8.3 ± 1.9 % of control | 
8 | O=C(OC[C@H]1O[C@@H](OC(=O)c2cc(O)c(O)c(OC(=O)c3cc(O)c(O)c(O)c3)c2)[C@H](OC(=O)c2cc(O)c(O)c(OC(=O)c3cc(O)c(O)c(O)c3)c2)[C@@H](OC(=O)c2cc(O)c(O)c(OC(=O)c3cc(O)c(O)c(O)c3)c2)[C@@H]1OC(=O)c1cc(O)c(O)c(OC(=O)c2cc(O)c(O)c(O)c2)c1)c1cc(O)c(O)c(OC(=O)c2cc(O)c(O)c(O)c2)c1 [Tannic acid] | 7.2 ± 2.3 % of control | 
9 | COc1c(O)cc2oc(-c3ccc(O)cc3)cc(=O)c2c1O [Hispidulin] | 7.4 ± 2.1 % of control | 
10 | O=C(O)[C@H]1O[C@@H](Oc2cc3oc(-c4ccc(O)cc4)cc(=O)c3c(O)c2O)[C@H](O)[C@@H](O)[C@@H]1O [Scutellarin] | 7.5 ± 1.7 % of control | 
11 | COc1cc(/C=C/C(=O)CC(=O)/C=C/c2ccc(O)c(OC)c2)ccc1O [Curcumin] | 4.6 ± 2.4 % of control | affinity in binding to the RBD-spike protein of SARS-CoV-2 (in words) [1]: exhibited the highest affinity; inhibition at 100 µg/mL ([1]; 100 μg/ml, read-out: efficacy in inhibiting RBD binding to hACE2): 100%; inhibition of pseudo-typed virion binding to hACE2/A549 (in words) [3]: similarly inhibited binding; binding to the ACE2 receptor itself (in words) [2]: moderate binding; concentration from which inhibition of transduction is statistically significant [4]: 5.0 µg/mL
12 | CC1(C)[C@@H](O[C@H]2O[C@H](C(=O)O)[C@@H](O)[C@H](O)[C@H]2O[C@@H]2O[C@H](C(=O)O)[C@@H](O)[C@H](O)[C@H]2O)CC[C@]2(C)[C@H]3C(=O)C=C4[C@@H]5C[C@@](C)(C(=O)O)CC[C@]5(C)CC[C@@]4(C)[C@]3(C)CC[C@@H]12 [Glycyrrhizic acid] |  | Binging to ACE2 (% of control ± DS) ([2]; Table 4, tested at 0.1 mg/ml): 10.1 ± 2.8 % of control
13 | C[C@@H]1O[C@@H](OC[C@H]2O[C@@H](Oc3c(-c4ccc(O)c(O)c4)oc4cc(O)cc(O)c4c3=O)[C@H](O)[C@@H](O)[C@@H]2O)[C@H](O)[C@H](O)[C@H]1O [Rutin] | 4.8 ± 2.0 % of control | 
14 | O=c1c(O)c(-c2ccc(O)c(O)c2)oc2cc(O)cc(O)c12 [Quercetin] | 7.8 ± 3.3 % of control | 
15 | O=c1c(-c2ccc(O)cc2)coc2cc(O)cc(O)c12 [Genistein] | 9.4 ± 2.7 % of control | 
16 | O=C(/C=C/c1ccc(O)c(O)c1)O[C@H](Cc1ccc(O)c(O)c1)C(=O)O [Rosmarinic acid] | 7.9 ± 1.8 % of control | 
17 | (−)-gallocatechin |  | Binding to RBD (% of control ± DS) [1]: 73.5 ± 6.7 % of control; Binging to ACE2 (% of control ± DS) ([2]; Table 4, tested at 0.1 mg/ml): 3.9 ± 2.3 % of control
18 | O=C(O)CC(O)C(=O)O (centres unmarked) [Malic acid] | 5.8 ± 1.4 % of control | 
19 | O=c1cc(-c2ccc(O)c(O)c2)oc2cc(O)cc(O)c12 [Luteolin] | 4.8 ± 1.6 % of control | 
20 | O=c1c(O)c(-c2cc(O)c(O)c(O)c2)oc2cc(O)cc(O)c12 [Myricetin] | 5.6 ± 2.1 % of control | 
21 | O=C(O)c1cc(O)c(O)c(O)c1 [Gallic acid] | 6.5 ± 1.3 % of control | 
22 | COc1ccc2cc3[n+](cc2c1OC)CCc1cc2c(cc1-3)OCO2 [Berberine] | 9.4 ± 2.4 % of control | 
23 | Hesperidin | 8.3 ± 2.3 % of control | Binding with RBD (% of control ± SD) [1]: 90.3 ± 3.8 % of control
24 | C[C@@H]1O[C@@H](O[C@H]2[C@H](Oc3cc(O)c4c(c3)O[C@H](c3ccc(O)cc3)CC4=O)O[C@H](CO)[C@@H](O)[C@@H]2O)[C@H](O)[C@H](O)[C@H]1O [Naringin] | 3.7 ± 1.1 % of control | 
25 | CC(C)c1cc2c(c(O)c1O)[C@@]1(C(=O)O)CCCC(C)(C)[C@@H]1CC2 [Carnosic acid] | 6.9 ± 4.1 % of control | 

Row | Molecule | Binging with ACE2 (% of control ± SD) ([2]; tested at 0.1 mg/ml) | further results
26 | D-limonene | 6.4 ± 1.5 % of control | Binding with RBD (% of control ± SD) [1]: 27.2 ± 6.4 % of control
27 | O=C1O[C@H]2[C@@H]3OC(=O)c4cc(O)c(O)c(O)c4-c4c(O)c(O)c5oc(=O)c6c(c(O)c(O)c7oc(=O)c4c5c76)-c4c(cc(O)c(O)c4O)C(=O)OC[C@H]3OC(O)[C@@H]2OC(=O)c2cc(O)c(O)c(O)c2-c2c1cc(O)c(O)c2O (mixture of isomers) [Punicalagin] | 5.4 ± 2.3 % of control | 
28 | C=C(C)[C@@H]1CCC(C)=C[C@H]1c1c(O)cc(CCCCC)cc1O [Cannabidiol, reference compound] | 5.8 ± 2.0 % of control | 
29 | Theaflavine-3′3-digallate |  | inhibition of pseudo-typed virion binding to hACE2/A549 (in words) [3]: similarly inhibited binding; concentration from which inhibition of transduction is statistically significant [4]: 10 µg/mL
30 | (−)-catechin gallate |  | Binding to RBD (% of control ± DS) [1]: 37.4 ± 4.7 % of control; Binging to ACE2 (% of control ± DS) ([2]; Table 4, tested at 0.1 mg/ml): 8.6 ± 1.5 % of control
31 | (−)-gallocatechin gallate |  | Binding to RBD (% of control ± DS) [1]: 75.4 ± 5.6 % of control; Binging to ACE2 (% of control ± DS) ([2]; Table 4, tested at 0.1 mg/ml): 7.5 ± 1.7 % of control
32 | CC(=O)c1c(O)c(C)c(O)c2c1OC1=CC(=O)C(C(C)=O)C(=O)C12C (centres unmarked) [Usnic acid] | 5.7 ± 1.7 % of control | 
33 | C=C1CC[C@@H]2[C@](C)(CO)[C@H](O)CC[C@@]2(C)[C@@H]1C/C=C1/C(=O)OC[C@H]1O [Andrographolide] |  | Binding to RBD (% of control ± DS) [1]: 22.1 ± 2.5 % of control; Binging to ACE2 (% of control ± DS) ([2]; Table 4, tested at 0.1 mg/ml): 5.6 ± 2.4 % of control
34 | Palmatine | 8.5 ± 2.7 % of control | Binding with RBD (% of control ± SD) [1]: 40.4 ± 6.1 % of control
35 | (+)-gallocatechin |  | Binding to RBD (% of control ± DS) [1]: 69.5 ± 2.8 % of control; Binging to ACE2 (% of control ± DS) ([2]; Table 4, tested at 0.1 mg/ml): 5.7 ± 1.6 % of control
36 | O=c1c(O)c(-c2ccc(O)cc2O)oc2cc(O)cc(O)c12 [Morin] | 5.6 ± 3.1 % of control | 
37 | O=C(O)[C@H]1O[C@@H](Oc2cc3oc(-c4ccccc4)cc(=O)c3c(O)c2O)[C@H](O)[C@@H](O)[C@@H]1O [Baicalin] | 4.9 ± 1.9 % of control | 
38 | Procyanidin B3 | 7.8 ± 2.7 % of control | Binding with RBD (% of control ± SD) [1]: 32.3 ± 3.7 % of control
39 | Procyanidin B2 | 5.8 ± 2.7 % of control | Binding with RBD (% of control ± SD) [1]: 31.1 ± 3.6 % of control
40 | O=c1cc(-c2ccccc2)oc2cc(O)c(O)c(O)c12 [Baicalein] | 7.4 ± 1.4 % of control | 
41 | O=c1c(O)c(-c2ccc(O)cc2)oc2cc(O)cc(O)c12 [Kaempferol] | 6.2 ± 2.5 % of control | 
42 | O=C(/C=C/c1ccc(O)c(O)c1)O[C@@H]1C[C@](O)(C(=O)O)C[C@@H](O)[C@H]1O [Chlorogenic acid] | 4.7 ± 1.6 % of control | 
43 | (+)-epigallocatechin gallate |  | Binding to RBD (% of control ± DS) [1]: 87.5 ± 6.8 % of control; Binging to ACE2 (% of control ± DS) ([2]; Table 4, tested at 0.1 mg/ml): 5.9 ± 2.0 % of control
44 | O=C1C[C@@H](c2ccc(O)cc2)Oc2cc(O)cc(O)c21 [Naringenin] | 8.3 ± 1.6 % of control | Binding with RBD (% of control ± SD) [1]: 20 ± 5.1 % of control
45 | COc1cc(/C=C/c2ccc(O)cc2)cc(OC)c1 [Pterostilbene] | 9.4 ± 2.5 % of control | 
46 | Schisandrin | 5.1 ± 2.7 % of control | Binding with RBD (% of control ± SD) [1]: 22.4 ± 3.3 % of control
47 | COc1ccc([C@@H]2CC(=O)c3c(O)cc(O)cc3O2)cc1O [Hesperetin] | 4.9 ± 2.7 % of control | 
48 | L-sulforaphane |  | Binding to RBD (% of control ± DS) [1]: 30.2 ± 3.6 % of control; Binging to ACE2 (% of control ± DS) [2]: 6.7 ± 1.5 % of control
49 | Oc1ccc(/C=C/c2cc(O)cc(O)c2)cc1 [Trans-resveratrol] | 5.5 ± 2.4 % of control | 

Source: US20220304976A1, “Method of simultaneously treating viral disease caused coronavirus, its variants and mutants using a pharmaceutical micronutrient composition” (priority 2021, published 2022)
